Among the test systems are Candida parapsilosis; Bacillus subtilis DELTA; Bacillus cereus AS1.126; Escherichia coli AS1.349; Escherichia coli DL7.
Common to all, as to assay: ≥ marks a high value that may be exact or a test limit, other limits are often not marked, values filed in µg/mL are converted to µM
The test system of experiment [1] is Pectobacterium carotovorum.
The test system of experiment [2] is Escherichia coli DH5alpha.
In experiment [3] the test system is Zymomonas mobilis ATCC 10988.
The test system of experiment [4] is Pseudomonas aeruginosa PAO1.
For experiment [5], the system named is Staphylococcus aureus ATCC 700699.
Experiment [6] deals with Staphylococcus aureus ATCC 29213.
The subject of experiment [7] is Klebsiella pneumoniae ATCC 700603.
Experiment [8] concerns Pseudomonas aeruginosa ATCC 27853.
Experiment [9] concerns Escherichia coli ATCC 25922.
In experiment [10] the test system is Staphylococcus aureus ATCC 33591.
In experiment [11] the test system is Staphylococcus epidermidis CICC 23664.
Experiment [12] concerns Proteus mirabilis CICC 22931.
Experiment [13] deals with Staphylococcus aureus AS1.72.
Experiment [14] has as its system Klebsiella pneumoniae subsp. pneumoniae CGMCC 1.176.
For experiment [15], the system named is Enterobacter cloacae CGMCC 1.58.
Experiment [16] concerns Pseudomonas aeruginosa CGMCC 1.860.
Experiment [17] concerns Enterococcus faecalis CGMCC 1.595.
Experiment [18] deals with Enterococcus faecium CGMCC 1.2334.
Experiment [19] relates to Bacillus subtilis ATCC 6051.
Experiment [20] relates to Escherichia coli NEB5alpha.
In experiment [21] the test system is Staphylococcus epidermidis ATCC 12228.
Experiment [22] has as its system Klebsiella aerogenes ATCC 13048.
The test system of experiment [23] is Cronobacter sakazakii DPC 6440.
Experiment [24] deals with Listeria monocytogenes LO28.

SMILES strings stand for the structures. Values after ≈ are worked out from the molar mass of the structure shown. Values joined by “and” are separate entries in the source; they are usually repeats but may differ in a detail not shown here. Equal entries are not always repeated. Bounds are passed on as bounds.

The term MIC denotes the lowest concentration that inhibits growth of the organism. The low end stands for greater potency, the high end for weaker potency. Compound `CC[C@H](C)[C@H](NC(=O)[C@H](C)NC(=O)[C@@H](N)CS)C(=O)N[C@@H](CCC(=O)O)C(=O)N[C@@H](Cc1cnc[nH]1)C(=O)N[C@@H](CCSC)C(=O)N[C@@H](CCCN=C(N)N)C(=O)N[C@H](C(=O)N1CCC[C@H]1C(=O)N[C@@H](CC(C)C)C(=O)N[C@@H](CCCCN)C(=O)N1CCC[C@H]1C(=O)N[C@@H](Cc1ccccc1)C(=O)N[C@@H](CO)C(=O)N[C@@H](Cc1ccccc1)C(=O)NCC(=O)N1CCC[C@H]1C(=O)N1CCC[C@H]1C(=O)N[C@@H](Cc1ccc(O)cc1)C(=O)N[C@@H](CC(N)=O)C(=O)N[C@@H](CC(C)C)C(=O)O)[C@@H](C)O` [CAIEHMRTPLKPFSFGPPYNL] registered an MIC in [1] of 3.46 µM (≈ 8.38 µg/mL). This lies in the single-digit micromolar range.

Regarding `CC[C@H](C)[C@H](NC(=O)[C@H](CCCCN)NC(=O)[C@H](CCCCN)NC(=O)[C@H](CC(C)C)NC(=O)CN)C(=O)N[C@H](C(=O)N[C@@H](CCCCN)C(=O)N[C@@H](CCCCN)C(=O)N[C@@H](CC(C)C)C(=O)N[C@@H](CC(C)C)C(N)=O)[C@@H](C)CC` [GLKKIIKKLL], the MIC was 17.3 µM (≈ 20 µg/mL) against Candida parapsilosis; 13 µM (≈ 15 µg/mL) in the experiment on Bacillus subtilis DELTA; at least 173 µM in experiment [2]; 17.3 µM (≈ 20 µg/mL) in experiment [3]; 13 µM (≈ 15 µg/mL) in experiment [4].

On to `CC[C@H](C)[C@H](NC(=O)[C@H](CC(=O)O)NC(=O)[C@H](CCCCN)NC(=O)[C@H](C)NC(=O)[C@H](C)NC(=O)CNC(=O)[C@H](C)NC(=O)[C@H](CC(C)C)NC(=O)[C@@H](NC(=O)[C@H](CC(=O)O)NC(=O)[C@@H](NC(=O)[C@@H](NC(=O)CN)C(C)C)C(C)C)[C@@H](C)CC)C(=O)N[C@@H](C)C(=O)NCC(=O)N[C@@H](Cc1cnc[nH]1)C(=O)N[C@@H](CC(C)C)C(=O)N[C@@H](C)C(=O)N[C@@H](CO)C(=O)N[C@@H](CCCCN)C(=O)N[C@H](C(=O)N[C@@H](CCSC)C(=O)N[C@@H](CC(N)=O)C(=O)N[C@@H](CCCCN)C(=O)N[C@@H](CC(C)C)C(N)=O)C(C)C` [GVVDILAGAAKDIAGHLASKVMNKL], for which the MIC was at least 100 µM in experiment [5]; above 100 µM in experiment [6]; above 100 µM in experiment [7]; above 100 µM in [8]; above 100 µM in experiment [9]; at least 100 µM in experiment [10].

Consider `CC[C@H](C)[C@H](NC(=O)[C@H](CC(=O)O)NC(=O)[C@H](CCCCN)NC(=O)[C@H](C)NC(=O)[C@H](C)NC(=O)CNC(=O)[C@H](CCCCN)NC(=O)[C@H](CC(C)C)NC(=O)[C@@H](NC(=O)[C@H](CC(=O)O)NC(=O)[C@@H](NC(=O)[C@@H](NC(=O)CN)C(C)C)C(C)C)[C@@H](C)CC)C(=O)N[C@@H](C)C(=O)NCC(=O)N[C@@H](Cc1cnc[nH]1)C(=O)N[C@@H](CC(C)C)C(=O)N[C@@H](C)C(=O)N[C@@H](CO)C(=O)N[C@@H](C)C(=O)N[C@H](C(=O)N[C@@H](CCSC)C(=O)N[C@@H](CC(N)=O)C(=O)N[C@@H](CCCCN)C(=O)N[C@@H](CC(C)C)C(N)=O)C(C)C` [GVVDILKGAAKDIAGHLASAVMNKL], for which the minimum inhibitory concentration (MIC) in experiment [5] is at least 100 µM; in experiment [6] it was above 100 µM; in [7], above 100 µM; in experiment [8], above 100 µM; in [9], 100 µM (≈ 249 µg/mL); in experiment [10], at least 100 µM.

Regarding `CC[C@H](C)[C@H](N)C(=O)N[C@@H](CCCCN)C(=O)N[C@@H](CCCCN)C(=O)N[C@H](C(=O)N[C@@H](Cc1c[nH]c2ccccc12)C(=O)N[C@@H](CO)C(=O)N[C@@H](CCCCN)C(=O)N[C@H](C(=O)N[C@@H](CCCCN)C(=O)N[C@@H](CCCCN)C(=O)N[C@@H](Cc1c[nH]c2ccccc12)C(=O)N[C@@H](Cc1c[nH]c2ccccc12)C(=O)N[C@@H](CCCCN)C(=O)O)[C@@H](C)CC)[C@@H](C)CC` [IKKIWSKIKKWWK], the MIC in the experiment on Bacillus cereus AS1.126 was 6.25 µM (≈ 11.1 µg/mL); in experiment [11], 2.5 µM (≈ 4.43 µg/mL); against Escherichia coli AS1.349, 2.5 µM (≈ 4.43 µg/mL); in [12], at least 100 µM; in experiment [13] it was 2.5 µM (≈ 4.43 µg/mL); in experiment [14], at least 100 µM. Also, the MIC in experiment [15] is at least 100 µM; in [16], 4.69 µM (≈ 8.31 µg/mL); in experiment [17], 5 µM (≈ 8.86 µg/mL); in experiment [18] it was 12.5 µM (≈ 22.2 µg/mL).

For `CC[C@H](C)[C@H](N)C(=O)N[C@@H](CC(N)=O)C(=O)NCC(=O)N[C@@H](CCSC)C(=O)N1CCC[C@H]1C(=O)N[C@@H](CCC(=O)O)C(=O)N[C@@H](CCC(=O)O)C(=O)N[C@H](C(=O)N[C@H](C(=O)N[C@@H](C)C(=O)N[C@@H](C)C(=O)O)C(C)C)C(C)C` [INGMPEEVVAA], the MIC in [19] and in experiment [20] was at least 1000 µM throughout.

Take `CC(C)C[C@H](NC(=O)[C@H](CCCN=C(N)N)NC(=O)[C@H](CC(C)C)NC(=O)[C@H](CC(C)C)NC(=O)[C@H](CCC(N)=O)NC(=O)[C@H](CCC(=O)O)NC(=O)[C@@H](N)CC(C)C)C(=O)N[C@@H](CCCCN)C(=O)N[C@@H](CCCCN)C(=O)N[C@@H](Cc1ccc(O)cc1)C(=O)O` [LEQLLRLKKY]: the MIC in [19] was at least 1270 µM; in experiment [20], at least 633 µM.

For the compound `CC[C@H](C)[C@H](NC(=O)[C@@H](N)C(C)C)C(=O)N[C@@H](Cc1cnc[nH]1)C(=O)N[C@@H](CCCCN)C(=O)N[C@@H](CC(C)C)C(=O)N[C@@H](C)C(=O)N[C@@H](CCCCN)C(=O)N[C@@H](CC(C)C)C(=O)N[C@@H](C)C(=O)N[C@@H](CCCCN)C(=O)N[C@@H](CCCCN)C(=O)N[C@@H](CC(C)C)C(=O)N[C@@H](C)C(=O)N[C@@H](CCCCN)C(=O)N[C@@H](CC(C)C)C(=O)N[C@@H](C)C(=O)N[C@@H](CCCCN)C(N)=O` [VIHKLAKLAKKLAKLAK], the MIC was 0.25 µM and 0.125 µM with Escherichia coli DL7; 0.25 µM (≈ 0.468 µg/mL) in experiment [21]; at least 32 µM in experiment [22].

`CC[C@H](C)[C@H](NC(=O)[C@@H](NC(=O)[C@H](CCCCN)NC(=O)[C@@H](NC(=O)[C@H](CCCCN)NC(=O)[C@H](C)NC(=O)[C@H](CCC(N)=O)NC(=O)[C@@H](NC(=O)[C@@H](N)Cc1c[nH]c2ccccc12)[C@@H](C)CC)[C@@H](C)O)C(C)C)C(=O)N[C@@H](C)C(=O)N[C@@H](Cc1ccc(O)cc1)C(=O)N[C@H](C(=O)N[C@@H](CCCN=C(N)N)C(=O)N[C@@H](Cc1ccc(O)cc1)C(=O)N[C@@H](CC(C)C)C(=O)O)C(C)C` [WIQAKTKVIAYVRYL]: the MIC is 19.5 µM (≈ 36.2 µg/mL) in experiment [23] and 2.44 µM (≈ 4.52 µg/mL) in [24].

Regarding `CC[C@H](C)[C@H](NC(=O)[C@@H](N)Cc1c[nH]c2ccccc12)C(=O)N[C@@H](CCC(N)=O)C(=O)N1CCC[C@H]1C(=O)N[C@@H](CCCCN)C(=O)N[C@H](C(=O)N[C@@H](CCCCN)C(=O)N[C@H](C(=O)N[C@H](C(=O)N1CCC[C@H]1C(=O)N[C@@H](C)C(=O)N[C@H](C(=O)N[C@@H](CCCN=C(N)N)C(=O)N[C@@H](C)C(=O)N[C@@H](CC(C)C)C(=O)O)C(C)C)[C@@H](C)CC)C(C)C)[C@@H](C)O` [WIQPKTKVIPAVRAL], the MIC in [23] is at least 312 µM; in experiment [24], at least 156 µM.

For the origin of these results see DBAASP.
